Assay results from patent US8106055B2, “Substituted amide compounds” (Gruenenthal GmbH, priority 2007, dated 2012).

Experiments:
[1] = target: T1, human μ opiate receptor (Homo sapiens, UniProt P35372); experiment: Affinity for the human μ opiate receptor ([3H]-naloxone displacement, CHO-K1 receptor membrane preparation, SPA); assay type: binding; conditions: for μ (binding on the μ opioid receptor, % inhibition): test concentration of 1 μM; for inhibition at 1 µM: 1.5 h, Table 2, test concentration 1 μM, read-out: μ receptor
T1 construct: purchased PerkinElmer Life Sciences, Zaventem, Belgium RB-HOM; host or cells: CHO-K1 cells (membrane preparation)
T1 sequence (P35372 whole entry): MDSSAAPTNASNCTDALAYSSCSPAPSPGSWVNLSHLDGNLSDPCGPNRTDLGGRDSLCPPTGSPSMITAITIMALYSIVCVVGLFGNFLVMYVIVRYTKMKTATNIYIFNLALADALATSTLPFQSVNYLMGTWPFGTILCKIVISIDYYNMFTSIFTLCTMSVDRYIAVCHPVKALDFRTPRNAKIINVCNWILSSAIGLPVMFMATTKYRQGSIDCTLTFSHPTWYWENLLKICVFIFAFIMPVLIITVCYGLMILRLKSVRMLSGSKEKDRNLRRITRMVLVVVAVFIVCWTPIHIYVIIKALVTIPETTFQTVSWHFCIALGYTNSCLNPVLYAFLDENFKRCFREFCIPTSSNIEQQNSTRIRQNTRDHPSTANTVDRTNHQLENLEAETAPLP
How it was run: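 Displacement of 1 nmol/l [3H]-naloxone measured by SPA counting after 90 min at room temperature, using human μ receptor CHO-K1 membrane preparation in Tris-HCl buffer with 0.06% BSA. Test substances at 1 μmol/l give % inhibition; dilution series yield IC50, then Ki (Cheng-Prusoff); non-specific binding with 100 μmol/l naloxone.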

[2] = target: T2, serotonin (5-HT) reuptake (Rattus norvegicus, UniProt P31652); experiment: Inhibition of serotonin (5HT) reuptake in synaptosomes from rat brain; assay type: biochemical; conditions: for 5-HT (inhibition of reuptake of serotonin, % inhibition): test concentration of 10 μM; for inhibition at 10 µM: Table 2, test concentration 10 μM, read-out: 5-HT reuptake
T2 construct: synaptosomes are freshly isolated from areas of the rat brain; from tissue; host or cells: rat brain synaptosomes (P2 fraction)
T2 sequence (P31652 whole entry): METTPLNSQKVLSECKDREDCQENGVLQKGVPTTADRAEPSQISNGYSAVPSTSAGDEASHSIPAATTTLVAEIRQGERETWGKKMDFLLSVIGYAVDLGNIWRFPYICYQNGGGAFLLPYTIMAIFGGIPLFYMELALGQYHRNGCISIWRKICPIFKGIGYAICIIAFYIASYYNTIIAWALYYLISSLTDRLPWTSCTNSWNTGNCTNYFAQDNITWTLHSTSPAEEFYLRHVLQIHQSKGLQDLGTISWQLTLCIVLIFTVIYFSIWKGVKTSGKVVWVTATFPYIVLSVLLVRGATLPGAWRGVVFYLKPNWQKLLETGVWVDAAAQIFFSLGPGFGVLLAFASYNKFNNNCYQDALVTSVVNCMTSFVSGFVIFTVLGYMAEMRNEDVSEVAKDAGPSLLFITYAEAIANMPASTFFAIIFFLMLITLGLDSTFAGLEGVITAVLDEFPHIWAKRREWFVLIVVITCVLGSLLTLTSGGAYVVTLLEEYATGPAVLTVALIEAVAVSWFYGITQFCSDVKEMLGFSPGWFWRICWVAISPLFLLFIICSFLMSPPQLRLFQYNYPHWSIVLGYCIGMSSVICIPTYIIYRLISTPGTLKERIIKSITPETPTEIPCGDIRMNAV
How it was run: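 Compounds screened at 10 μM and reported as percent inhibition of serotonin uptake. Uptake measured in a freshly prepared P2 synaptosomal fraction from rat brain.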

Structure (SMILES)	μ (binding on the μ opioid receptor, % inhibition) [1] [%]	5-HT (inhibition of reuptake of serotonin, % inhibition) [2] [%]	inhibition at 1 µM [1] [%]	inhibition at 10 µM [2] [%]
CN(C)C(c1cccc(F)c1)C1CCC(NC(=O)COCC2CCCN(S(=O)(=O)c3ccccc3)C2)CC1 (centres unmarked) [Example 266]	74	97		
COc1ccc(S(=O)(=O)N2CCCC2COCC(=O)NCCC2CCC(C(c3cccc(F)c3)N(C)C)CC2)cc1 (centres unmarked) [Example 224]	85	97		
COc1ccc(S(=O)(=O)N(C)CCOCC(=O)NC2CCC(C(c3cccc(F)c3)N(C)C)CC2)cc1 (centres unmarked) [Example 250]	70	84		
CN(C)C(c1cccc(F)c1)C1CCC(NC(=O)COC2CCCN(S(=O)(=O)c3ccccc3)C2)CC1 (centres unmarked) [Example 277]	68	93		
Cc1ccc(S(=O)(=O)N(C)CCOCC(=O)NCC2CCC(C(c3cccc(F)c3)N(C)C)CC2)cc1 (centres unmarked) [Example 227]	77	86		
CN(C)C(c1ccc(F)cc1)C1CCC(NC(=O)COC2CCCCC2N(C)S(=O)(=O)c2ccc(Cl)c(Cl)c2)CC1 (centres unmarked) [Example 256]	73	84		
CN(C)C(c1ccc(F)cc1)C1CCC(CNC(=O)COCCN(C)S(=O)(=O)c2ccc(Cl)cc2Cl)CC1 (centres unmarked) [Example 249]	70	95		
CN(C)C(c1ccc(Cl)cc1)C1CCC(CNC(=O)COCCN(C)S(=O)(=O)c2ccc(F)cc2)CC1 (centres unmarked) [Example 263]	72	102		
CN(CCOCC(=O)NC1CCC(C(c2ccccc2)N2CCCC2)CC1)S(=O)(=O)c1c(Cl)cc(Cl)cc1Cl (centres unmarked) [Example 606, 2-{2-[methyl-(2,4,6-trichlorobenzenesulfonyl)-amino]-ethoxy}-N-[4-(phenylpyrrolidin-1-yl-methyl)-cyclohexyl]-acetamide]			46	85
Cc1ccc(S(=O)(=O)N(C)CCOCC(=O)NC2CCC(C(c3cccs3)N(C)C)CC2)cc1 (centres unmarked) [Example 168, N-(4-((dimethylamino) (thiophen-2-yl)methyl)cyclohexyl)-2-(2-(N,4-dimethylphenylsulfamido)ethoxy)acetamide]	83	85		
COc1ccc(S(=O)(=O)N2CCCCC2COCC(=O)NC2CCC(C(c3cccs3)N(C)C)CC2)cc1 (centres unmarked) [Example 243]	79	73		
COc1cc(C)c(S(=O)(=O)N2CCC(OCC(=O)NCC3CCC(C(c4cccc(F)c4)N(C)C)CC3)C2)c(C)c1C (centres unmarked) [Example 252]	82	93		
COc1cc(C)c(S(=O)(=O)N(CCOCC(=O)NCC2CCC(C(c3ccccc3)N(C)C)CC2)Cc2ccccc2)c(C)c1C (centres unmarked) [Example 201]	88	89		
CN(C)C(c1cccc(F)c1)C1CCC(CNC(=O)COC2CCN(S(=O)(=O)c3ccc(Cl)cc3)C2)CC1 (centres unmarked) [Example 258]	80	84		
O=C(COCCN(C1CC1)S(=O)(=O)c1c(Cl)cc(Cl)cc1Cl)NC1CCC(C(c2ccccc2)N2CCCC2)CC1 (centres unmarked) [Example 603, 2-{2-[cyclopropyl-(2,4,6-trichlorobenzenesulfonyl)-amino]-ethoxy}-N-[4-(phenylpyrrolidin-1-ylmethyl)-cyclohexyl]-acetamide]			45	74
Cc1ccc(S(=O)(=O)N2CCC(OCC(=O)NCCC3CCC(C(c4cccs4)N(C)C)CC3)C2)cc1 (centres unmarked) [Example 272]	73	88		

Structure (SMILES)	μ (binding on the μ opioid receptor, % inhibition) [1] [%]	5-HT (inhibition of reuptake of serotonin, % inhibition) [2] [%]	inhibition at 1 µM [1] [%]	inhibition at 10 µM [2] [%]
CN(C)C(c1cccc(F)c1)C1CCC(CCNC(=O)COC2CCN(S(=O)(=O)c3ccc(Cl)cc3)C2)CC1 (centres unmarked) [Example 247]	75	89		
COc1ccc(S(=O)(=O)N2CCCCC2CCOCC(=O)NCCC2CCC(C(c3cccc(F)c3)N(C)C)CC2)cc1 (centres unmarked) [Example 213]	87	98		
CN(C)C(c1cccc(F)c1)C1CCC(NC(=O)COC2CCN(S(=O)(=O)c3ccccc3)C2)CC1 (centres unmarked) [Example 271]	72	93		
COc1ccc(S(=O)(=O)N2CCC(OCC(=O)NCC3CCC(C(c4ccc(Cl)cc4)N(C)C)CC3)C2)cc1OC (centres unmarked) [Example 260]	76	88		
CN(C)C(c1cccc(F)c1)C1CCC(CNC(=O)COCC2CCCN(S(=O)(=O)c3ccccc3)C2)CC1 (centres unmarked) [Example 220]	73	95		
CN(C)C(c1cccc(F)c1)C1CCC(CNC(=O)COC2CCN(S(=O)(=O)c3ccc(F)cc3)C2)CC1 (centres unmarked) [Example 275]	71	80		
CN(C)C(c1cccc(F)c1)C1CCC(NC(=O)COCCN(C)S(=O)(=O)c2ccc(OC(F)(F)F)cc2)CC1 (centres unmarked) [Example 246]	76	91		
COc1ccc(S(=O)(=O)N(C)CCOCC(=O)NCC2CCC(C(c3ccccc3)N(C)C)CC2)cc1 (centres unmarked) [Example 242]	77	77		
CN(C)C(c1cccc(F)c1)C1CCC(NC(=O)COCCN(C)S(=O)(=O)c2c(Cl)cc(Cl)cc2Cl)CC1 (centres unmarked) [Example 208]	79	93		
CN(C)C(c1cccc(F)c1)C1CCC(NC(=O)COC2CCN(S(=O)(=O)c3ccc(Cl)cc3)C2)CC1 (centres unmarked) [Example 204]	81	86		
Cc1ccc(S(=O)(=O)N(C)CCOCC(=O)NCC2CCC(C(c3ccc(Cl)cc3)N(C)C)CC2)cc1 (centres unmarked) [Example 273]	68	91		
COc1ccc(S(=O)(=O)N2CCCCC2COCC(=O)NC2CCC(C(c3cccc(F)c3)N(C)C)CC2)cc1 (centres unmarked) [Example 255]	72	91		
CN(C)C(c1cccc(F)c1)C1CCC(NC(=O)COCC2CCCN2S(=O)(=O)c2ccc(Cl)c(Cl)c2)CC1 (centres unmarked) [Example 211]	83	90		
CN(C)C(c1cccs1)C1CCC(CNC(=O)COC2CCN(S(=O)(=O)c3ccccc3)CC2)CC1 (centres unmarked) [Example 276]	78	93		
CN(C)C(c1ccccc1)C1CCC(NC(=O)COC2CCN(S(=O)(=O)c3c(Cl)cc(Cl)cc3Cl)C2)CC1 (centres unmarked) [Example 609, N-[4-(dimethylaminophenylmethyl)-cyclohexyl]-2-[1-(2,4,6-trichlorobenzenesulfonyl)-pyrrolidin-3-yloxy]-acetamide]			94	86
